Measurements as given in patent US6841548B2, “Pharmaceutical preparations containing estra-1,3,5(10)-triene derivatives” (Schering AG, priority 1994, dated 2005).

Legend:
[1] = system: ovariectomated rats; assay: Hepatic parameters: HDL cholesterol levels in serum, enzymatic test; assay type: in vivo, rat; conditions: Experiment A
Description: (§1) The laboratory animals, adult female rats (breeder: HSD/WIN:WU) were ovariectomated on day 14. Treatment started two weeks later by a single oral application per day of the respective test substance. The dosages given for esters refer to the steroid portion of the substances. The tests were made in three groups (A, B, C) at various points in time. This is why there is a deviation in control group values. The tests of series A, B, and C can therefore be compared among each other if the values for the respective control groups are taken into account.
(§2) The procedure of allocating animals to groups was randomized. The experiment was carried out as a block test. The animals were weighed at the beginning and at the end of the experiment.
(§3) The start of treatment was defined as day 1 (=d1), treatment was finished on day 7 (=d7); the animals were killed on day 8, various organs (uteri, adrenal glands, liver) were removed, weighed and deep-frozen (−196° C.) for further examination.
(§4) Blood was taken from the retrobulbar plexus under ether anaesthesia prior to treatment (d0), and on (d4) and (d8). IGF1, angiotensin I, cholesterol and HDL cholesterol were determined in the serum obtained.
(§5) cholesterol/HDL: enzymatic tests, photometric determination, reagents by Dr Bruno Lange GmbH.

[2] = oral, humans, Goldzieher study; cited from earlier work
[3] = system: ovariectomated rats; assay: Oral estrogenic effects: weights of adrenal glands in ovariectomated rats; assay type: in vivo, rat
Description: as §1, §2, §3

[4] = system: ovariectomated rats; assay: Oral estrogenic effects: uterus weights in ovariectomated rats; assay type: in vivo, rat
Description: as §1, §2, §3

[5] = system: ovariectomated rats; assay: Oral estrogen treatment: serum IGF1 (somatomedin C), RIA; assay type: in vivo, rat; parameters: unit not given here; conditions: Experiment A
Description: as §1, §2, §3, §4
IGF1: RIA by bioMérieux Co.;

[6] = system: ovariectomated rats; assay: Hepatic parameters: serum angiotensin I, modified RIA for renin activity; assay type: in vivo, rat; parameters: Angiotensin I: unit not given here; conditions: for Angiotensin I: Experiment A
Description: as §1, §2, §3, §4
angiotensin: modified RIA for renin activity by Sorin Co.

[7] = system: ovariectomated rats; assay: Hepatic parameters: total cholesterol levels in serum, enzymatic test; assay type: in vivo, rat; conditions: Experiment A
Method: The laboratory animals, adult female rats (breeder: HSD/WIN:WU) were ovariectomated on day 14. Treatment started two weeks later by a single oral application per day of the respective test substance. The dosages given for esters refer to the steroid portion of the substances. The tests were made in three groups (A, B, C) at various points in time.
as §2, §3, §4, §5

[8] = day 4, 0.1 μg/animal/day p.o. d1-d7
[9] = day 4, 1 μg/animal/day p.o. d1-d7
[10] = day 4, 10 μg/animal/day p.o. d1-d7
[11] = day 4, 100 μg/animal/day p.o. d1-d7
[12] = day 8, 0.1 μg/animal/day p.o. d1-d7
[13] = day 8, 1 μg/animal/day p.o. d1-d7
[14] = day 8, 10 μg/animal/day p.o. d1-d7
[15] = day 8, 100 μg/animal/day p.o. d1-d7
[16] = Experiment A, 0.1 μg/animal/day p.o. d1-d7
[17] = Experiment A, 1 μg/animal/day p.o. d1-d7
[18] = Experiment A, 10 μg/animal/day p.o. d1-d7
[19] = Experiment A, 100 μg/animal/day p.o. d1-d7
[20] = Experiment B, 10 μg/animal/day p.o. d1-d7

C#C[C@]1(O)CC[C@H]2[C@@H]3CCc4cc(O)ccc4[C@H]3CC[C@@]21C [EE, ethinyl estradiol]
HDL cholesterol levels (mean value ± standard deviation) [1, 8]: 49.6 ± 2.9 mg/dL | HDL cholesterol levels (mean value ± standard deviation) [1, 9]: 47.1 ± 8.5 mg/dL | HDL cholesterol levels (mean value ± standard deviation) [1, 10]: 19.5 ± 8.4 mg/dL | HDL cholesterol levels (mean value ± standard deviation) [1, 11]: 3.6 ± 1.3 mg/dL | HDL cholesterol levels (mean value ± standard deviation) [1, 12]: 52.2 ± 4.1 mg/dL | HDL cholesterol levels (mean value ± standard deviation) [1, 13]: 49.5 ± 6.9 mg/dL | HDL cholesterol levels (mean value ± standard deviation) [1, 14]: 26.5 ± 7.8 mg/dL | HDL cholesterol levels (mean value ± standard deviation) [1, 15]: 2.4 ± 0.9 mg/dL | Highest AUC found, measured 0 to 24 hours after application [2]: 2.121 ng·h/mL | Lowest AUC, measured 0 to 24 hours after application [2]: 0.284 ng·h/mL | Weights of adrenal glands (mean value) [3, 16]: 53.7 mg | Weights of adrenal glands (mean value) [3, 17]: 58.9 mg | Weights of adrenal glands (mean value) [3, 18]: 59.0 mg | Weights of adrenal glands (mean value) [3, 19]: 80.8 mg | Weights of adrenal glands (mean value) [3, 20]: 56.6 mg | Uterus weights (mean value) [4, 16]: 152.2 mg | Uterus weights (mean value) [4, 17]: 195.8 mg | Uterus weights (mean value) [4, 18]: 282.4 mg | Uterus weights (mean value) [4, 19]: 441.2 mg | Uterus weights (mean value) [4, 20]: 352.59 mg | IGF1 (= somatomedin C) ([5]; 100 μg/animal/day p.o. d1-d7, d 0 (prior to treatment)): 704.6 ± 70.4 | IGF1 (= somatomedin C) ([5]; 100 μg/animal/day p.o. d1-d7, d 4): 547.0 ± 88.7 | IGF1 (= somatomedin C) ([5]; 100 μg/animal/day p.o. d1-d7, d 8): 393.6 ± 71.1 | Angiotensin I [6, 8]: 408.2 ± 31.2 | Angiotensin I [6, 9]: 402.2 ± 30.3 | Angiotensin I [6, 10]: 572.2 ± 35.0 | Angiotensin I [6, 11]: 930.1 ± 146.2 | Angiotensin I [6, 12]: 473.7 ± 19.7 | Angiotensin I [6, 13]: 492.6 ± 29.1 | Angiotensin I [6, 14]: 498.7 ± 26.1 | Angiotensin I [6, 15]: 833.1 ± 137.2 | Effect on angiotensin I (AI) values, in words ([6]; doses of 10 or 100 μg, detectable as early as day 4): sharp increases of AI | Total cholesterol levels (mean value ± standard deviation) [7, 8]: 81.0 ± 3.3 mg/dL | Total cholesterol levels (mean value ± standard deviation) [7, 9]: 82.4 ± 15.8 mg/dL | Total cholesterol levels (mean value ± standard deviation) [7, 10]: 30.3 ± 9.6 mg/dL | Total cholesterol levels (mean value ± standard deviation) [7, 11]: 6.8 ± 3.2 mg/dL | Total cholesterol levels (mean value ± standard deviation) [7, 12]: 86.5 ± 9.6 mg/dL | Total cholesterol levels (mean value ± standard deviation) [7, 13]: 80.2 ± 14.4 mg/dL | Total cholesterol levels (mean value ± standard deviation) [7, 14]: 39.8 ± 10.2 mg/dL | Total cholesterol levels (mean value ± standard deviation) [7, 15]: 5.5 ± 3.3 mg/dL
